From PMC4104029, “Mechanism of Action of Compound-13: An α1-Selective Small Molecule Activator of AMPK” (Chemistry & Biology, 2014)

Key:
[1] = molecular target: Yeast acetate CoA ligase; assay: Acetate CoA ligase assay; format: biochemical; conditions: 0–100 μM
From the text: (§1) (Needleman and Wunsch, 1970) and edited using ESPript (Gouet, et al., 2003). Secondary structure was derived from PDBID 2Y94. The phosphotransferase domain is shaded green (T-loop phosphorylation site is indicated with a star), the autoinhibitory domain in blue and the C-terminal domain in yellow. Regulatory elements in the α-linker are also indicated: α-hook in pink and α-RIMs in orange. Black lines indicate the position of the epitopes recognised by α-subunit specific antibodies used in this study. (B) COS-1 cells were seeded into 6-well plates and transiently transfected with pCMV-AMPKβ1, pCMV-AMPKγ1 and either pCMV-FLAG-AMPKα2 WT or pCMV-FLAG-AMPKα2/α1 LOOP chimera using FuGENE HD.
(§2) After 24 h cells were treated with the indicated compounds for 1 h and kinase activity determined in anti-FLAG immunoprecipitates under standard conditions. […]
(§3) Mouse hepatocytes were incubated with the indicated compounds in the absence (Resting) or presence of 10 mU/ml insulin for 60 min. Lysates were analysed by Western blotting using the indicated antibodies. […]
(§4) Yeast acetate CoA ligase (Sigma) was assayed in reactions containing 50 mM TES pH 7.4, 0.1 mM EDTA, 5 mM MgCl2, 4 mM ATP, 0.2 mM coenzyme A, 5 mM DTT and increasing concentrations of C2 and C13 (0 – 100 μM). The formation of pyrophosphate (PPi) was monitored by reduction of PPi-molybdate complexes as described in Methods. […]

[2] = molecular target: T1, WT FLAG-α2, β1, and γ1 in COS1 cells (Homo sapiens, UniProt P54619+P54646); assay: Kinase activity in anti-FLAG immunoprecipitates from treated COS1 cells; format: cell-based; conditions: up to 100 μM, 1 h
T1 construct: expressed in transfected cells; host or cells: COS-1 cells
From the text: as §1, §2, §3, §4

[3] = system: LKB1−/− mouse embryonic fibroblasts; assay: AMPK and ACC phosphorylation in LKB1-null fibroblasts; format: cell-based; conditions: 1 hr; AICAR 2 mM
Protocol: AICAR (0.5 mM) was included as a positive control. Cell lysates were analyzed using western blotting with the indicated antibodies. (B) AMPKα1 or AMPKα2 complexes were immunoprecipitated from hepatocyte extracts prepared as described in (A) and assayed for kinase activity using 0.2 mM AMARA and 0.1 mM ATP. Results are expressed as the mean Pi incorporated in picomoles per minute-milligram ± SD. (C) Hepatocytes were stimulated with 30 μM C13 for the indicated times prior to harvesting, with AICAR (0.5 mM, 1 hr) as positive control. Lysates were analyzed using western blotting with the indicated antibodies. (D) Mouse hepatocytes were treated with the indicated compounds for 1 hr, and adenine nucleotide ratios were determined using capillary electrophoresis of perchloric acid extracts. […] Lysates were analyzed using western blotting with the indicated antibodies. (F) Wild-type (LKB1^+/+) or LKB1-null (LKB1^−/−) mouse embryonic fibroblasts were incubated with the indicated concentrations of C13 for 1 hr. AICAR (2 mM) was included as a positive control. Lysates were analyzed using western blotting with the indicated antibodies.

T1 sequence (P54646 whole entry): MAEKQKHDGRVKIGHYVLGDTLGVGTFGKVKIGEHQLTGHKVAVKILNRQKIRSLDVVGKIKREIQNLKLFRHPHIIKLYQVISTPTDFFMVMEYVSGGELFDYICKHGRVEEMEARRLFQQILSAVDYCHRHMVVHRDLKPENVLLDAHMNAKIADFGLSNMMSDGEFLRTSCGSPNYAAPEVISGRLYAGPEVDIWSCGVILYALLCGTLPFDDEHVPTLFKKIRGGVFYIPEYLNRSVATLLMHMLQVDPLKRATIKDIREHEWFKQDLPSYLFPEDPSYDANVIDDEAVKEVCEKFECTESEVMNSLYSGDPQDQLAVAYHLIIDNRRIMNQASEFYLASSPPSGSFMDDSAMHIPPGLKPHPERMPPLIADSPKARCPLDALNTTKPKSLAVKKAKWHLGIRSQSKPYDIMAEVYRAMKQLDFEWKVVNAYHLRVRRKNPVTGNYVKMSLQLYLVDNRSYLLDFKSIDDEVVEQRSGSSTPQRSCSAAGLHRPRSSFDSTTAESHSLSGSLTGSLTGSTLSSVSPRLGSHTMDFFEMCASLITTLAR
T1 sequence (Q9Y478 whole entry partner): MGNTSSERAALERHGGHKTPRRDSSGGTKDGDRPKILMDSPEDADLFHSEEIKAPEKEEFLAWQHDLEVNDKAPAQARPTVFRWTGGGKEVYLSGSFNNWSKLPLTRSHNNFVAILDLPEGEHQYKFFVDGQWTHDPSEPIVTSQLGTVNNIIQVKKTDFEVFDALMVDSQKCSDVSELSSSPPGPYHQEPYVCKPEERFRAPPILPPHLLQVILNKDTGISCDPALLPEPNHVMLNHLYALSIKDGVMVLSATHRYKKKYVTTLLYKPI
T1 sequence (P54619 whole entry): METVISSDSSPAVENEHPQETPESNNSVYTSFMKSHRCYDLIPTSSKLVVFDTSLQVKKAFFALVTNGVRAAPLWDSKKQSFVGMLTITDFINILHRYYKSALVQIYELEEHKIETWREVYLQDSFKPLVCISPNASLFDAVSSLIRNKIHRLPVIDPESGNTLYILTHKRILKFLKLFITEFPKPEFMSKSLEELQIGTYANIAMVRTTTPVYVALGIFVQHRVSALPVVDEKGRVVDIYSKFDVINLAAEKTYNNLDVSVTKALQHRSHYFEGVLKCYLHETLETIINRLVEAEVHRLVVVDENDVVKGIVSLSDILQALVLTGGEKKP

Structure (SMILES): CC(C)C(=O)OCOP(=O)(OCOC(=O)C(C)C)c1ccc(C2=NOC(=O)C2)o1 [Compound C13]
- IC50 [1]: 33 ± 2.2 µM
- kinase activation in cells [2]: unresponsive
- compound-induced phosphorylation of AMPK and ACC [3]: abolished
